The values that follow come from patent publication US6054318A, “Expression of the glucose oxidase gene in transgenic organisms” (Commonwealth Scientific And Industrial Research Organization, priority 1994, dated 2000).

The test system of one experiment is Rhyzoctonia solani. Description: In vitro growth of R. solani in PD broth, microtitre plate reader. The following applies: PD broth plus gluconic acid. Format: cell-based. How it is done:
Glucose oxidase was examined in vitro for its ability to inhibit the growth of an Australian isolate of R. solani. Different concentrations of A. niger glucose oxidase suspended in potato dextrose broth and different amounts of filtrate from T. flavus 32908 and GOH-1 were inoculated with R. solani and fungal growth was monitored using a microtitre plate reader. Duplicates were performed for each experiment and the experiment was repeated twice. […] Growth inhibition curves for R. solani were calculated 26 hours after the start of fungal growth (FIG. 5). […] These values are approximately twice the glucose oxidase IC50 value determined for V. dahliae (2.2 μg/ml).

Experiment [1] relates to Verticillium dahliae microsclerotia and mycelia. As to conditions: added to growth media; cited from earlier work.
Experiment [2] deals with Talaromyces flavus glucose oxidase, wild type. The following applies: T. flavus glucose oxidase; read-out: Km for β-D-glucose; cited from earlier work.
Experiment [3] addresses Aspergillus niger glucose oxidase, wild type (Aspergillus niger, UniProt P13006). As to conditions: A. niger glucose oxidase; read-out: Km for β-D-glucose; cited from earlier work.

Sequence of Aspergillus niger glucose oxidase, wild type (P13006 17-605): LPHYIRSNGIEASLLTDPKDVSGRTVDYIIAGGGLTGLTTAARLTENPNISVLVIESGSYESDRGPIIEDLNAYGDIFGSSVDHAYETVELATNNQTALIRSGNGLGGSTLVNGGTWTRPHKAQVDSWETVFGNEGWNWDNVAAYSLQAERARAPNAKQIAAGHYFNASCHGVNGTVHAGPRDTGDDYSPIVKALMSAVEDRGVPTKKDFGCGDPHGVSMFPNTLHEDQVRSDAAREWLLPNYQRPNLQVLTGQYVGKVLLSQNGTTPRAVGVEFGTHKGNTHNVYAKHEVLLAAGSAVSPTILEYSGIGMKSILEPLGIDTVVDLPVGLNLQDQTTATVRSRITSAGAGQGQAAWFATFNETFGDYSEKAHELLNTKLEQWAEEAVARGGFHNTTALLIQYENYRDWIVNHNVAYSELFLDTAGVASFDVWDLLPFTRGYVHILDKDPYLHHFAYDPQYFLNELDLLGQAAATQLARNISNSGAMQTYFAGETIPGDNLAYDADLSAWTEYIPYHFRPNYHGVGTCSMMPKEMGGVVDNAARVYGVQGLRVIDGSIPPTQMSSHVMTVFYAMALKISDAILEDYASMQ

Regarding `O=C(O)[C@H](O)[C@@H](O)[C@H](O)[C@H](O)CO` [gluconic acid], in the experiment on Rhyzoctonia solani, the “growth profile of R. solani compared with PD broth alone” value was “very similar”. Further, the “inhibition of microsclerotial germination and mycelial growth” value (“inhibition” below) in experiment [1] was “did not cause inhibition”.
For `O=C[C@H](O)[C@@H](O)[C@H](O)[C@H](O)CO` [glucose], in experiment [1], the “inhibition” value is “did not cause inhibition”.
In the case of `OO` [hydrogen peroxide], in experiment [1], the “inhibition” value is “inhibited microsclerotial germination and mycelial growth”.
The Km is the concentration of substrate that gives half-maximal velocity. Turning to `OC[C@H]1O[C@@H](O)[C@H](O)[C@@H](O)[C@@H]1O` [β-D-glucose], the Km in experiment [2] was 10.9 mM; in experiment [3], 27 mM.
